# In BindingDB's records for doi:10.1016/s0968-0896(99)00306-5 (University of Bologna, 2000):
# Assays:
# Acetylcholinesterase = Acetylcholinesterase (Homo sapiens, UniProt P22303); assay: Cholinesterase Inhibition Assay
# Experimental: (§1) The cholinesterase assays were performed using colorimetric method reported by Ellman. The absorbance changes at 412 nm were recorded for 5 min with a Jasco Uvidec-610 double beam Spectrophotometer. The reaction rates were compared and the percent inhibition due to the presence of test compounds was calculated. Inhibition curve was obtained for each compound.
# Cholinesterase = Cholinesterase (Homo sapiens, UniProt P06276); assay: Cholinesterase Inhibition Assay; details: pH 8; 37 °C
# Experimental: as §1
# Chain of Acetylcholinesterase (P22303 whole entry): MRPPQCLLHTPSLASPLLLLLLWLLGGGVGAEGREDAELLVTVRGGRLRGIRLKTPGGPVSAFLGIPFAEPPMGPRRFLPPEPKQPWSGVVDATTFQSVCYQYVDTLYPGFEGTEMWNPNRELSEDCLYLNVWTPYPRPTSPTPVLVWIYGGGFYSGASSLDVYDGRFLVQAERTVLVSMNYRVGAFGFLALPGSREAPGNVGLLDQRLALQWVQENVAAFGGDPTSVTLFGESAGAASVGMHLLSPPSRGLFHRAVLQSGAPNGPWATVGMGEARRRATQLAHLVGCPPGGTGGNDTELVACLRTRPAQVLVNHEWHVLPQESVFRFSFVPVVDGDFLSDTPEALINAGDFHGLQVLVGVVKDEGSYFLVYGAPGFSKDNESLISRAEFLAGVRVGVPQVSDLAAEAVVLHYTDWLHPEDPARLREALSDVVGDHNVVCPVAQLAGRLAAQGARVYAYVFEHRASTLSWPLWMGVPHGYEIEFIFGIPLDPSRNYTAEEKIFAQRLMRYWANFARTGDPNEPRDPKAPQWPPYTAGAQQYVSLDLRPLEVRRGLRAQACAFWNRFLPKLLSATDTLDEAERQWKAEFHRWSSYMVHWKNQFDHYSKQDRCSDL
# Chain of Cholinesterase (P06276 whole entry): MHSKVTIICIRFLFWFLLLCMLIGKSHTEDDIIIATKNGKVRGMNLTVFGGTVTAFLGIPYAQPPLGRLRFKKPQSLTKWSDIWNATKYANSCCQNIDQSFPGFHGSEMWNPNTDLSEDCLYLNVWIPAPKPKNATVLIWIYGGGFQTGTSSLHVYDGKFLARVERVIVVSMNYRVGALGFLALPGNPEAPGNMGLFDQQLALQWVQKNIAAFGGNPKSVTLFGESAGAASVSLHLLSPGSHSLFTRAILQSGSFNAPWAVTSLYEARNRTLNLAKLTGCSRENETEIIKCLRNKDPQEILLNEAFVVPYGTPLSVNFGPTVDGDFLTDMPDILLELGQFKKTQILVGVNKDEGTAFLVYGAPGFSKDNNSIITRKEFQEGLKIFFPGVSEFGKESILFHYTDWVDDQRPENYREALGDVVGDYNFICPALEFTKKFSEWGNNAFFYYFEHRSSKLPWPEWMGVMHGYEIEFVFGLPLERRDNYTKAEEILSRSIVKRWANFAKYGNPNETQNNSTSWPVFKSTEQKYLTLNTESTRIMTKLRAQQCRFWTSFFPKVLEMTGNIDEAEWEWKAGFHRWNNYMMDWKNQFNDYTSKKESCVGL
SMILES,IC50 (Acetylcholinesterase) [µM],IC50 (Cholinesterase) [µM],Ki (Acetylcholinesterase) [µM]
"Nc1c2c(nc3ccc([N+](=O)[O-])cc13)-c1ccccc1C2 [2-nitro-10H-indeno[1,2-b]quinolin-11-amine]",> 100,–,–
"Cc1ccc2c(c1)-c1nc3ccccc3c(N)c1C2 [7-methyl-10H-indeno[1,2-b]quinolin-11-amine]",4.6,–,–
"CNc1c2c(nc3ccccc13)-c1ccccc1C2 [N-methyl-10H-indeno[1,2-b]quinolin-11-amine]",1.3,1.6,–
"Nc1c2c(nc3cc(F)ccc13)-c1ccccc1C2 [3-fluoro-10H-indeno[1,2-b]quinolin-11-amine]",1.2,5.7,–
"Cc1cccc2c1Cc1c-2nc2ccccc2c1N [9-methyl-10H-indeno[1,2-b]quinolin-11-amine]",3.9,–,–
Nc1c2c(nc3ccccc13)-c1ccccc1C2,–,4.7,0.21
"c1ccc(CNc2c3c(nc4ccccc24)-c2ccccc2C3)cc1 [N-benzyl-10H-indeno[1,2-b]quinolin-11-amine]",7.1,0.5,7.5
"Nc1c2c(nc3cc([N+](=O)[O-])ccc13)-c1ccccc1C2 [3-nitro-10H-indeno[1,2-b]quinolin-11-amine]",67.5,–,–
"Nc1c2c(nc3ccccc13)-c1ccc(F)cc1C2 [8-fluoro-10H-indeno[1,2-b]quinolin-11-amine]",0.43,7.1,–
"COc1cccc2c1Cc1c-2nc2ccccc2c1N [9-methoxy-10H-indeno[1,2-b]quinolin-11-amine]",1.6,3,–
"COc1ccc2c(c1)Cc1c-2nc2ccccc2c1N [8-methoxy-10H-indeno[1,2-b]quinolin-11-amine]",6.5,–,–
"COc1ccc2c(c1)-c1nc3ccccc3c(N)c1C2 [7-methoxy-10H-indeno[1,2-b]quinolin-11-amine]",4.3,–,–
"Nc1ccc2c(N)c3c(nc2c1)-c1ccccc1C3 [11H-Indeno-[1,2-b]-quinolin-7,10-diamine]",29,–,–
"Nc1ccc2nc3c(c(N)c2c1)Cc1ccccc1-3 [11H-Indeno-[1,2-b]-quinolin-8,10-diamine]",5.9,–,–
"Nc1c2c(nc3cc(Cl)ccc13)-c1ccccc1C2 [3-chloro-10H-indeno[1,2-b]quinolin-11-amine]",6.5,–,–
"Nc1c2c(nc3ccccc13)-c1ccc(Cl)cc1C2 [8-chloro-10H-indeno[1,2-b]quinolin-11-amine]",5.4,–,–
"CCCCCCCNc1c2c(nc3ccccc13)-c1ccccc1C2 [N-Heptyl-N-11H-indeno-[1,2-b]-quinolin-10-yl)-amine]",4.3,–,–
